Experimental data taken from patent publication US10494376B2, “Tetrahydroisoquinoline derived PRMT5-inhibitors” (CTXT PTY LTD, priority 2014, dated 2019).
Counter-ions that a name gives are not always drawn.

Target: Full-length PRMT5 enzyme (NCBI Reference sequence NP_006100.2) co-expressed with His6-MEP50 (Homo sapiens (Human), UniProt O14744)
Assay: Revised PRMT5 Biochemical Assay
Settings: 1 μM peptide substrate, 1 μM S-Adenosyl methionine, 4 hours at 37 degree Celsius, Transcreener EPIGEN fluorescence polarisation
Experimental: Compounds of the invention may be tested for in vitro activity in the following assay: A histone H4 derived peptide is used as substrate (amino acid sequence: […]N H2). Full-length PRMT5 enzyme (NCBI Reference sequence NP_006100.2) was co-expressed with His6-MEP50 in insect cells and purified via Nickel immobilized metal affinity and gel filtration chromatography (“the enzyme”).
The 6 μL reactions are run in Greiner brand black 384-well low volume assay plates. All reactions contained assay buffer (phosphate buffered saline, 0.01% (v/v) Tween-20, 0.01% (w/v) albumin from chicken egg white, 1 mM Dithiothreitol, 1 μM peptide substrate, 1 μM S-Adenosyl methionine, and 15 ng/reaction enzyme, with the enzyme being omitted from negative control reactions. Compounds were added in a volume of 100 nL from dilution series prepared in DMSO, positive and negative control reactions receiving the same volume DMSO without compound. The plates were sealed with adhesive seals and incubated for 4 hours at 37 degree Celsius. Reaction progress was measured using the Transcreener™ EPIGEN methyltransferase assay (BellBrook Labs, Madison, Wis.) as recommended by the manufacturer. To each reaction 2 μL detection mix were added, containing coupling enzymes, fluorescence polarisation tracer, and AMP antibody. Plates were incubated for 90 minutes before being read on a PerkinElmer EnVision™ plate reader in fluorescence polarisation mode. IC50 values were obtained from the raw readings by calculating percent inhibition (%1) for each reaction relative to controls on the same plate (% I=(I−CN)/(CP−CN) where CN/CP are the averages of the negative/positive reactions, respectively), then fitting the %1 data vs. compound concentration [I] to % I=(A+((B−A)/(1+((C/[I])^D)))) where A is the lower asymptote, B is the upper asymptote, C is the IC50 value, and D is the slope.

Sequence of Full-length PRMT5 enzyme (NCBI Reference sequence NP_006100.2) co-expressed with His6-MEP50 (O14744 whole entry): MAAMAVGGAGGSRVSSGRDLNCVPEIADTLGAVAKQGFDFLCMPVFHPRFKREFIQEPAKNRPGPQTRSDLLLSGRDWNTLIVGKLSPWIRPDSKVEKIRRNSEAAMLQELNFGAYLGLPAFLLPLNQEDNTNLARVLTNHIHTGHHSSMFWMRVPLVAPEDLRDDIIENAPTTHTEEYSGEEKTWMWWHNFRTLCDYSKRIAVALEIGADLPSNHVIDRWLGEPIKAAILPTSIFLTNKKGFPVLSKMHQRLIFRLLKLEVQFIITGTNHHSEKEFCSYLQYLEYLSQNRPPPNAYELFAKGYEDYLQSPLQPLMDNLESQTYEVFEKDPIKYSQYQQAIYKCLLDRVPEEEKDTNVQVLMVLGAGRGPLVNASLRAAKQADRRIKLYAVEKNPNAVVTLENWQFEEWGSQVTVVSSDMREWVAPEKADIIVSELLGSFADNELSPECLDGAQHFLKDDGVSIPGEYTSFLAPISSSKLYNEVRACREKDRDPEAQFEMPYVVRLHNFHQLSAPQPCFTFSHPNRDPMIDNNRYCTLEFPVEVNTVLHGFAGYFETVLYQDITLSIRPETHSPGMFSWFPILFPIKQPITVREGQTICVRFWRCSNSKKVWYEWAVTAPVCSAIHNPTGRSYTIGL
Sequence of Full-length PRMT5 enzyme (NCBI Reference sequence NP_006100.2) co-expressed with His6-MEP50 (Q9BQA1 whole entry partner): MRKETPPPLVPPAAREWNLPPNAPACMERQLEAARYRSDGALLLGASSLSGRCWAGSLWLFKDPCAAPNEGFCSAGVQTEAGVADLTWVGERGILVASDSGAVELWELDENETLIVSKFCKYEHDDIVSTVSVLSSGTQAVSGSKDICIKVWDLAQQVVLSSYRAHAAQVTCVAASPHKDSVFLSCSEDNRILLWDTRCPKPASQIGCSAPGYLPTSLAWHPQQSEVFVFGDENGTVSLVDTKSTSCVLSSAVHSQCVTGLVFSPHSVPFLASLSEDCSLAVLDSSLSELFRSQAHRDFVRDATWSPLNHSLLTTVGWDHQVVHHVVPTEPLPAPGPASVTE

Compound | IC50 [nM]
O=C(NC[C@@H](O)[C@@H]1Cc2ccccc2CN1)c1cccnc1 [Example 78, N-((R)-2-Hydroxy-2-((S)-1,2,3,4-tetrahydroisoquinolin-3-yl)ethyl)nicotinamide dihydrochloride] | 1700
O=C(NC[C@@H](O)[C@@H]1Cc2ccccc2CN1)c1ccc(C(=O)N2C3CCC2COC3)c(C(F)F)c1 [Example 85, 4-(3-Oxa-8-azabicyclo[3.2.1]octane-8-carbonyl)-3-(difluoromethyl)-N-((R)-2-hydroxy-2-((S)-1,2,3,4-tetrahydroisoquinolin-3-yl)ethyl)benzamide] | 279
O=C(NC[C@@H](O)[C@@H]1Cc2ccccc2CN1)c1ccnc(C(F)(F)F)c1 [Example 86, N-((R)-2-Hydroxy-2-((S)-1,2,3,4-tetrahydroisoquinolin-3-yl)ethyl)-2-(trifluoromethyl)isonicotinamide dihydrochloride] | 3820
COc1cc(C(=O)N2C3CCC2COC3)ccc1C(=O)NC[C@@H](O)[C@@H]1Cc2ccccc2CN1 [Example 87, 4-(3-Oxa-8-azabicyclo[3.2.1]octane-8-carbonyl)-N-((R)-2-hydroxy-2-((S)-1,2,3,4-tetrahydroisoquinolin-3-yl)ethyl)-2-methoxybenzamide hydrochloride] | 57
CC(=O)N1CCC(c2nc3cc(C(=O)NC[C@@H](O)[C@@H]4Cc5ccccc5CN4)ccc3[nH]2)CC1 [Example 88, 2-(1-Acetylpiperidin-4-yl)-N-((R)-2-hydroxy-2-((S)-1,2,3,4-tetrahydroisoquinolin-3-yl)ethyl)-1H-benzo[d]imidazole-5-carboxamide] | 187
CCOc1cc(-c2nnc(C)o2)ccc1C(=O)NC[C@@H](O)[C@@H]1Cc2ccccc2CN1 [Example 89, 2-Ethoxy-N-((R)-2-hydroxy-2-((S)-1,2,3,4-tetrahydroisoquinolin-3-yl)ethyl)-4-(5-methyl-1,3,4-oxadiazol-2-yl)benzamide] | 203
O=C(NC[C@@H](O)[C@@H]1Cc2ccccc2CN1)c1ccc(C(=O)N2CCCC2)cc1 [Example 90, N-((R)-2-Hydroxy-2-((S)-1,2,3,4-tetrahydroisoquinolin-3-yl)ethyl)-4-(pyrrolidine-1-carbonyl)benzamide] | 947
O=C(NC[C@@H](O)[C@@H]1Cc2ccccc2CN1)c1ccc(C(=O)N2C3CCC2CC3)cc1 [Example 91, 4-(7-Azabicyclo[2.2.1]heptane-7-carbonyl)-N-((R)-2-hydroxy-2-((S)-1,2,3,4-tetrahydroisoquinolin-3-yl)ethyl)benzamide] | 123
COC1CCN(C(=O)c2ccc(C(=O)NC[C@@H](O)[C@@H]3Cc4ccccc4CN3)cc2)CC1 [Example 92, N-((R)-2-Hydroxy-2-((S)-1,2,3,4-tetrahydroisoquinolin-3-yl)ethyl)-4-(4-methoxypiperidine-1-carbonyl)benzamide] | 310
O=C(NC[C@@H](O)[C@@H]1Cc2ccccc2CN1)c1ccc(C(=O)N2CCCCO2)cc1 [Example 93, N-((R)-2-Hydroxy-2-((S)-1,2,3,4-tetrahydroisoquinolin-3-yl)ethyl)-4-(1,2-oxazinane-2-carbonyl)benzamide] | 759
O=C(NC[C@@H](O)[C@@H]1Cc2ccccc2CN1)c1ccc(C(=O)NC2CCS(=O)(=O)CC2)cc1 [Example 95, N^1-(1,1-Dioxidotetrahydro-2H-thiopyran-4-yl)-N^4-((R)-2-hydroxy-2-((S)-1,2,3,4-tetrahydroisoquinolin-3-yl)ethyl)terephthalamide] | 9710
O=C(NC[C@@H](O)[C@@H]1Cc2ccccc2CN1)c1ccc(C(=O)N2Cc3cccnc3C2)cc1 [Example 96, 4-(6,7-Dihydro-5H-pyrrolo[3,4-b]pyridine-6-carbonyl)-N-((R)-2-hydroxy-2-((S)-1,2,3,4-tetrahydroisoquinolin-3-yl)ethyl)benzamide] | 1380
CC(C)NC(=O)c1ccc(C(=O)NC[C@@H](O)[C@@H]2Cc3ccccc3CN2)cc1 [Example 97, N^1-((R)-2-Hydroxy-2-((S)-1,2,3,4-tetrahydroisoquinolin-3-yl)ethyl)-N^4-isopropylterephthalamide] | 18700
O=C(NC[C@@H](O)[C@@H]1Cc2ccccc2CN1)c1ccc(Cl)nc1 [Example 98, 6-Chloro-N—((R)-2-hydroxy-2-((S)-1,2,3,4-tetrahydroisoquinolin-3-yl)ethyl)nicotinamide hydrochloride] | 230
O=C(NC[C@@H](O)[C@@H]1Cc2ccccc2CN1)c1ccc(OC2CCNCC2)nc1 [Example 99, N—((R)-2-Hydroxy-2-((S)-1,2,3,4-tetrahydroisoquinolin-3-yl)ethyl)-6-(piperidin-4-yloxy)nicotinamide trihydrochloride] | 127
O=C(NC[C@@H](O)[C@@H]1Cc2ccccc2CN1)c1cc(NC2COC2)ncn1 [Example 107, N—((R)-2-Hydroxy-2-((S)-1,2,3,4-tetrahydroisoquinolin-3-yl)ethyl)-6-(oxetan-3-ylamino)pyrimidine-4-carboxamide] | 546
CC(NC(=O)c1ccc(C(=O)N2CCOCC2)cc1)[C@@H](O)[C@@H]1Cc2ccccc2CN1 (stereo partly drawn) [Example 109, N-((1R)-1-Hydroxy-1-((S)-1,2,3,4-tetrahydroisoquinolin-3-yl)propan-2-yl)-4-(morpholine-4-carbonyl)benzamide hydrochloride] | 688
CC(NC(=O)c1ccc(C(=O)N2CCOCC2)cc1)[C@H](O)[C@@H]1Cc2ccccc2CN1 (stereo partly drawn) [Example 110, N-((1S)-1-Hydroxy-1-((S)-1,2,3,4-tetrahydroisoquinolin-3-yl)propan-2-yl)-4-(morpholine-4-carbonyl)benzamide hydrochloride] | 1490
Nc1ccc(C(=O)NC[C@@H](O)[C@@H]2Cc3ccccc3CN2)cn1 [Example 111, 6-Amino-N-((R)-2-hydroxy-2-((S)-1,2,3,4-tetrahydroisoquinolin-3-yl)ethyl)nicotinamide dihydrochloride] | 4670
O=C(NC[C@@H](O)[C@@H]1Cc2ccccc2CN1)c1ccc2[nH]ncc2c1 [Example 112, N-((R)-2-Hydroxy-2-((S)-1,2,3,4-tetrahydroisoquinolin-3-yl)ethyl)-1H-indazole-5-carboxamide dihydrochloride] | 2310
O=C(NC[C@@H](O)[C@@H]1Cc2ccccc2CN1)c1ccc2[nH]nnc2c1 [Example 114, N-((R)-2-Hydroxy-2-((S)-1,2,3,4-tetrahydroisoquinolin-3-yl)ethyl)-1H-benzo[d][1,2,3]triazole-5-carboxamide dihydrochloride] | 5490
O=C(NC[C@@H](O)[C@@H]1Cc2ccccc2CN1)c1cc(Cl)nc(OC2COC2)c1 [Example 115, 2-Chloro-N-((R)-2-hydroxy-2-((S)-1,2,3,4-tetrahydroisoquinolin-3-yl)ethyl)-6-(oxetan-3-yloxy)isonicotinamide dihydrochloride] | 2830
CC(=O)N1CCC(Oc2cc(C(=O)NC[C@@H](O)[C@@H]3Cc4ccccc4CN3)cnn2)CC1 [Example 116, 6-((1-Acetylpiperidin-4-yl)oxy)-N-((R)-2-hydroxy-2-((S)-1,2,3,4-tetrahydroisoquinolin-3-yl)ethyl)pyridazine-4-carboxamide dihydrochloride] | 1110
O=C(NC[C@@H](O)[C@@H]1Cc2ccccc2CN1)c1cccc2c1ncn2C1CCOCC1 [Example 117, N-((R)-2-Hydroxy-2-((S)-1,2,3,4-tetrahydroisoquinolin-3-yl)ethyl)-1-(tetrahydro-2H-pyran-4-yl)-1H-benzo[d]imidazole-4-carboxamide dihydrochloride] | 487
COC(=O)N1CCC(Oc2cncc(C(=O)NC[C@@H](O)[C@@H]3Cc4ccccc4CN3)c2)CC1 [Example 118, Methyl 4-((5-(((R)-2-hydroxy-2-((S)-1,2,3,4-tetrahydroisoquinolin-3-yl)ethyl)carbamoyl)pyridin-3-yl)oxy)piperidine-1-carboxylate dihydrochloride] | 502
O=C(NC[C@@H](O)[C@@H]1Cc2ccccc2CN1)c1ccnc(OC2CCN(CC(F)(F)F)CC2)c1 [Example 124, N—((R)-2-Hydroxy-2-((S)-1,2,3,4-tetrahydroisoquinolin-3-yl)ethyl)-2-((1-(2,2,2-trifluoroethyl)piperidin-4-yl)oxy)isonicotinamide] | 70
CCOc1cc(C(=O)N2C3CCC2COC3)ccc1C(=O)NC[C@@H](O)[C@@H]1Cc2cc(C)ccc2CN1 [Example 125, 4-(3-Oxa-8-azabicyclo[3.2.1]octane-8-carbonyl)-2-ethoxy-N—((R)-2-hydroxy-2-((S)-6-methyl-1,2,3,4-tetrahydroisoquinolin-3-yl)ethyl)benzamide hydrochloride] | 232
